What was measured:
Type in all cases: in vivo
[1] = test system: ryegrass, Italian (italian ryegrass, Lolium multiflorum); assay: Test A postemergence application, visual injury rating 0-100; conditions: 10 days
In short: (§1)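 Grow plants in loam soil blended with sand. Apply formulated compound (non-phytotoxic solvent, surfactant) as a directed soil spray before emergence, or to plants at the one- to two-leaf stage after emergence. Hold in greenhouse 10 days, then rate injury visually versus untreated controls on a 0-100 scale.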

[2] = test system: oat, wild (wild oat, Avena fatua); assay: as above; conditions: 10 days
In short: as §1

corn (Zea mays) [3] = assay: as above; conditions: 10 days
In short: as §1

kochia (Bassia scoparia) [4] = assay: as above; conditions: 10 days
In short: as §1

[5] = test system: blackgrass (Alopecurus myosuroides); assay: as above; conditions: 10 days
In short: as §1

[6] = test system: ragweed (common ragweed, Ambrosia artemisiifolia); assay: as above; conditions: 10 days
In short: as §1

[7] = test system: galium (catchweed bedstraw, Galium aparine); assay: as above; conditions: 10 days
In short: as §1

[8] = test system: horseweed (Erigeron canadensis); assay: as above; conditions: 10 days
In short: as §1

soybean (Glycine max) [9] = assay: as above; conditions: 10 days
In short: as §1

[10] = test system: green foxtail (Setaria viridis); assay: as above; conditions: 10 days
In short: as §1

[11] = test system: wheat (Triticum aestivum); assay: as above; conditions: 10 days
In short: as §1

[12] = test system: palmer (palmer amaranth, palmer pigweed, Amaranthus palmeri); assay: as above; conditions: 10 days
In short: as §1

[13] = test system: barnyardgrass (Echinochloa crus-galli); assay: as above; conditions: 10 days
In short: as §1

rice (Oryza sativa) = assay: Test B flooded paddy test, visual plant response rating 0-100; conditions: 250 g ai/ha, Flood, applied to paddy water, evaluated after 13 days
In short: (§2)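 Paddy-water application: test compounds went directly into water flooded 3 cm above the soil surface, with plants at 2 leaves. After a 13-day greenhouse period, responses were judged by eye relative to controls; a dash marks an untested entry.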

[14] = test system: ducksalad (Heteranthera limosa); assay: as above; conditions: 250 g ai/ha, Flood, applied to paddy water, evaluated after 13 days
In short: as §2

[15] = test system: barnyardgrass (Echinochloa crusgalli); assay: as above; conditions: 250 g ai/ha, Flood, applied to paddy water, evaluated after 13 days
In short: as §2

[16] = test system: sedge, umbrella (small-flower umbrella sedge, Cyperus difformis); assay: as above; conditions: 250 g ai/ha, Flood, applied to paddy water, evaluated after 13 days
In short: as §2

[17] = test system: ryegrass, Italian (italian ryegrass, Lolium multiflorum); assay: Test A preemergence soil spray, visual injury rating 0-100; conditions: 10 days, 0 = no effect, 100 = complete control
In short: as §1

[18] = test system: oat, wild (wild oat, Avena fatua); assay: as above; conditions: 10 days, 0 = no effect, 100 = complete control
In short: as §1

corn (Zea mays) [19] = assay: as above; conditions: 10 days, 0 = no effect, 100 = complete control
In short: as §1

kochia (Bassia scoparia) [20] = assay: as above; conditions: 10 days, 0 = no effect, 100 = complete control
In short: as §1

[21] = test system: blackgrass (Alopecurus myosuroides); assay: as above; conditions: 10 days, 0 = no effect, 100 = complete control
In short: as §1

[22] = test system: ragweed (common ragweed, Ambrosia artemisiifolia); assay: as above; conditions: 10 days, 0 = no effect, 100 = complete control
In short: as §1

soybean (Glycine max) [23] = assay: as above; conditions: 10 days, 0 = no effect, 100 = complete control
In short: as §1

[24] = test system: green foxtail (Setaria viridis); assay: as above; conditions: 10 days, 0 = no effect, 100 = complete control
In short: as §1

[25] = test system: wheat (Triticum aestivum); assay: as above; conditions: 10 days, 0 = no effect, 100 = complete control
In short: as §1

[26] = test system: palmer (palmer amaranth, palmer pigweed, Amaranthus palmeri); assay: as above; conditions: 10 days, 0 = no effect, 100 = complete control
In short: as §1

[27] = test system: barnyardgrass (Echinochloa crus-galli); assay: as above; conditions: 10 days, 0 = no effect, 100 = complete control
In short: as §1

[28] = 31 g ai/ha, postemergence, 0 = no effect, 100 = complete control
[29] = Postemergence, 125 g ai/ha, 0 is no effect, 100 is complete control

## CCOC(=O)C1CC(NC(=O)C2(C)CN(c3cc(F)cc(F)c3)C(=O)O2)CO1 (stereo not shown) [Compound 31]
[1]; [28]
  Ryegrass, Italian plant response rating (0-100): 60
[1]; [29]
  Ryegrass, Italian plant response rating (0 to 100 scale): 90
[2]; [28]
  Oat, Wild plant response rating (0-100): 80
[2]; [29]
  Oat, Wild plant response rating (0 to 100 scale): 90
Corn (Zea mays) [3]; [28]
  Corn plant response rating (0-100): 0
Corn (Zea mays) [3]; [29]
  Corn plant response rating (0 to 100 scale): 50
Kochia (Bassia scoparia) [4]; [28]
  Kochia plant response rating (0-100): 0
Kochia (Bassia scoparia) [4]; [29]
  Kochia plant response rating (0 to 100 scale): 70
[5]; [28]
  Blackgrass plant response rating (0-100): 90
[5]; [29]
  Blackgrass plant response rating (0 to 100 scale): 100
[6]; [28]
  Ragweed plant response rating (0-100): 30
[6]; [29]
  Ragweed plant response rating (0 to 100 scale): 50
[7]; [28]
  Galium plant response rating (0-100): 60
[7]; [29]
  Galium plant response rating (0 to 100 scale): 70
[8]; [28]
  Horseweed plant response rating (0-100): 0
[8]; [29]
  Horseweed plant response rating (0 to 100 scale): 0
Soybean (Glycine max) [9]; [28]
  Soybean plant response rating (0-100): 10
Soybean (Glycine max) [9]; [29]
  Soybean plant response rating (0 to 100 scale): 60
[10]; [28]
  Foxtail, Green plant response rating (0-100): 0
[10]; [29]
  Foxtail, Green plant response rating (0 to 100 scale): 80
[11]; [28]
  Wheat plant response rating (0-100): 90
[11]; [29]
  Wheat plant response rating (0 to 100 scale): 90
[12]; [28]
  Amaranth, Palmer plant response rating (0-100): 0
[12]; [29]
  Amaranth, Palmer / Pigweed, Palmer plant response rating (0 to 100 scale): 20
[13]; [28]
  Barnyardgrass plant response rating (0-100): 10
[13]; [29]
  Barnyardgrass plant response rating (0 to 100 scale): 90
Rice (Oryza sativa)
  Plant response rating, Rice (0 to 100 scale, 0 is no effect and 100 is complete control): 0
[14]
  Plant response rating, Ducksalad (0 to 100 scale, 0 is no effect and 100 is complete control): 0
[15]
  Plant response rating, Barnyardgrass (0 to 100 scale, 0 is no effect and 100 is complete control): 0
[16]
  Plant response rating, Sedge, Umbrella (0 to 100 scale, 0 is no effect and 100 is complete control): 0
[17]; 31 g ai/ha
  Ryegrass, Italian plant response rating (0-100): 0
[17]; 125 g ai/ha
  Ryegrass, Italian plant response rating (0 to 100 scale): 60
[18]; 31 g ai/ha
  Oat, Wild plant response rating (0-100): 0
[18]; 125 g ai/ha
  Oat, Wild plant response rating (0 to 100 scale): 30
Corn (Zea mays) [19]; 31 g ai/ha
  Corn plant response rating (0-100): 0
Corn (Zea mays) [19]; 125 g ai/ha
  Corn plant response rating (0 to 100 scale): 0
Kochia (Bassia scoparia) [20]; 31 g ai/ha
  Kochia plant response rating (0-100): 0
Kochia (Bassia scoparia) [20]; 125 g ai/ha
  Kochia plant response rating (0 to 100 scale): 0
[21]; 31 g ai/ha
  Blackgrass plant response rating (0-100): 20
[21]; 125 g ai/ha
  Blackgrass plant response rating (0 to 100 scale): 30
[22]; 31 g ai/ha
  Ragweed plant response rating (0-100): 0
[22]; 125 g ai/ha
  Ragweed plant response rating (0 to 100 scale): 0
Soybean (Glycine max) [23]; 31 g ai/ha
  Soybean plant response rating (0-100): 0
Soybean (Glycine max) [23]; 125 g ai/ha
  Soybean plant response rating (0 to 100 scale): 0
[24]; 31 g ai/ha
  Foxtail, Green plant response rating (0-100): 0
[24]; 125 g ai/ha
  Foxtail, Green plant response rating (0 to 100 scale): 0
[25]; 31 g ai/ha
  Wheat plant response rating (0-100): 0
[25]; 125 g ai/ha
  Wheat plant response rating (0 to 100 scale): 90
[26]; 31 g ai/ha
  Amaranth, Palmer plant response rating (0-100): 0
[26]; 125 g ai/ha
  Amaranth, Palmer plant response rating (0 to 100 scale): 10
[27]; 31 g ai/ha
  Barnyardgrass plant response rating (0-100): 0
[27]; 125 g ai/ha
  Barnyardgrass plant response rating (0 to 100 scale): 0

Reference: patent US20260285850A1, “SUBSTITUTED OXAZOLIDINONES AND IMIDAZOLINONES AS HERBICIDES” (FMC CORPORATION, priority 2023, published 2026)
